Results taken from patent US20190352341A1, “MODIFIED PEPTIDES AND THEIR USE FOR TREATING SYSTEMIC LUPUS ERYTHEMATOSUS” (IMMUPHARMA FRANCE SA, priority 2018, published 2019).
Numbered stars: 1 amine (or outer) side, 2 acyl side, 3 side chain; on linkers, the order of the positions; unused ones are H or OH. Square brackets hold non-standard residues; d marks the D form. Peptide text beside a SMILES is read from it. ξ: configuration not given here. X1 = CSCC[C@H](NC(=N)[C@H](Cc1c[nH]cn1)N[*:1])C(=O)[*:2]; pS = N[C@@H](COP(=O)(O)O)C(=O)O; Ile(3ξ) = CCC(C)[C@H](N)C(=O)O

Experiments:
[1] = system: Lewis rats; experiment: Chronic-EAN rat model for CIDP; format: in vivo; settings: P140 100 μg/rat i.p., vs untreated rats
Procedure: Male Lewis rats, 7-8 weeks old, weighing 250-270 g, purchased from Charles River (Domaine des Oncins, L'Arbresle, France) were used. To induce chronic-EAN (CIDP), rats were immunized with S-palm-P0(180-199) peptide by subcutaneous injection at the base of the tail of 200 μL of an inoculum containing 200 μg of peptide (Ac(palm)KRGRQTPVLYAMLDHSRS), and 0.5 mg of Mycobacterium tuberculosis (strain H37 RA, Difco, Detroit, Mich., USA) emulsified in 100 μL of saline solution and 100 μL of Freund's incomplete adjuvant (SIGMA-Aldrich, St-Quentin Fallavier, France).
Body weight and clinical scores are assessed daily until 60 days post-immunization (dpi). Severity of paresis is graded as follows: 0=no illness; 1=flaccid tail; 2=moderate paraparesis; 3=severe paraparesis; 4=tetraparesis; 5=death.
100 μg/rat P140 peptide in 500 μL water/saline (1:10) were intraperitoneally injected at 5, 7, 9, 13 dpi and 3 times per week from 22 dpi until the end of the study.

[2] = system: C57BL/6 mice; experiment: DSS-induced mouse model of colonic inflammation; format: in vivo
Excerpt: Normal mice (C57BL/6; 7 week-old; males) have received the P140 peptide ([…], iv route; 10 mice) or saline only (control group; 10 mice) at days −2 and −1. At day 0, dextran sodium sulfate (DSS; 2-3%) was administrated to induce the disease.
Animals were examined every day for body weight loss, stool consistency, diarrhea, and blood in the feces. The animals were sacrificed around day 14 or at any time if they are very sick (loss >25% body weight). Statistics: Mann-Whitney (exact)

[3] = target: T1, HSC70 protein (Bos taurus, UniProt P19120); experiment: Affinity of the peptides for HSC70 protein (BIAcore); format: binding, bovine
T1 construct: purchased Stressgen
Procedure: BIAcore 3000 system (Biacore AB) was used to evaluate the binding of P140 peptides to HSC70 protein (Page et al., 2009, and 2011). Sensor chip CMS, surfactant P20, amine coupling kit containing N-hydroxysuccinimide (NHS) and N-ethyl-N′-dimethylaminopropyl carbodiimide (EDC), 2-(2-pyridinyldithio)ethaneamine (PDEA) and ethanolamine were from Biacore AB. Biosensor assays were performed with HBS-EP buffer as running buffer (10 mM HEPES, 150 mM NaCl, 3 mM EDTA, 0.005% surfactant P20, pH 7.4). The compounds were diluted in the running buffer. The sensor chip surface was regenerated after each experiment by injecting 10 μL of 10 mM HCl. Recombinant bovine HSC70 (Stressgen) was immobilized on flow cells of a CM5 sensor chip through its thiol groups using 35 μL PDEA in 50 mM borate buffer, pH 8.3 on the NHS/EDC-activated matrix. Then, 35 μL of HSC70 (100 μg/mL in formate buffer, pH 4.3) were injected until a response of 13,000 response units (RU) corresponding to 13 ng/mm^2 of HSC70 was immobilized. Twenty μL of a 50 mM cysteine/1 M NaCl solution was used to saturate unoccupied sites on the chip. The direct binding measurement of P140 peptides to HSC70 was carried out at 25° C. with a constant flow rate of 20 μL/min. P140 peptide and analogues were injected in the flux at different concentrations for 3 min, followed by a dissociation phase of 3 min. The kinetic parameters were calculated using the BIAeval 3.1 software on a personal computer. Analysis was performed using the simple 1:1 Langmuir binding model. The specific binding profiles were obtained after subtracting the response signal from the control empty channel and from blank-buffer injection. The fitting to each model was judged by the χ^2 value and randomness of residue distribution compared to the theoretical model.

[4] = P140 iv at days −2 and −1, DSS from day 0, vs saline group
[5] = BIAcore, 25° C., 1:1 Langmuir model, global fit

T1 sequence (P19120 whole entry): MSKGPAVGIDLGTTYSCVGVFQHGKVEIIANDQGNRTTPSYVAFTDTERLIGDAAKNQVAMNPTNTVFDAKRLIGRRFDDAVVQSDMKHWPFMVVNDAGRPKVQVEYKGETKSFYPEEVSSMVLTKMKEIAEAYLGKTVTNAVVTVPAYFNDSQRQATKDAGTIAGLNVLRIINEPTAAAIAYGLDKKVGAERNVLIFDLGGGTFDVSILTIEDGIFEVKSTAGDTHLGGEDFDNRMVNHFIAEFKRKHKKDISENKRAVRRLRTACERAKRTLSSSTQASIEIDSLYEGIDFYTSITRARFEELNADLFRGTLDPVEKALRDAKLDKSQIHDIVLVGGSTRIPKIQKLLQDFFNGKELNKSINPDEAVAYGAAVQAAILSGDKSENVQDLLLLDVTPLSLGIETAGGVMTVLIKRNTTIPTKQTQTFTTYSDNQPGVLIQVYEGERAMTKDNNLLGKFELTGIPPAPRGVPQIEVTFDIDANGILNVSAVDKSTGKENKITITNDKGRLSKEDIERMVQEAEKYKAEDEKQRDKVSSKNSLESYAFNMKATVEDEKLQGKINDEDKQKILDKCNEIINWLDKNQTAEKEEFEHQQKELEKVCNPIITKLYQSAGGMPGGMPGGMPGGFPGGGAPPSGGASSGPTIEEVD

With `CCC(C)[C@H](NC(=O)[C@H](Cc1ccccc1)NC(=O)[C@H](C)NC(=O)[C@H](Cc1ccc(O)cc1)NC(=O)CNC(=O)[C@H](CCCNC(=N)N)NC(=O)[C@@H]1CCCN1C(=O)[C@H](CCCCN)NC(=O)CNC(=O)[C@H](COP(=O)(O)O)NC(=O)[C@H](CCCNC(=N)N)NC(=O)[C@H](CCCCN)NC(=O)[C@H](CO)NC(=O)[C@H](Cc1ccc(O)cc1)NC(=O)[C@@H](NC(=O)[C@H](CCSC)NC(=N)[C@H](Cc1c[nH]cn1)NC(=O)[C@@H](NC(=O)[C@@H](N)CCCNC(=N)N)C(C)CC)C(C)C)C(=O)N[C@@H](CCC(=O)O)C(=O)N[C@@H](Cc1ccc(O)cc1)C(=O)O` (stereo partly drawn) [Compound P140] (H-R[Ile(3ξ)][X1]VYSKR[pS]GKPRGYAF[Ile(3ξ)]EY-OH) as the compound, how does the “Chronicity of the disease” value [1] read?
Its value is “seems abolish the chronicity of the disease”.

And the Maximal clinical scores [1]?
The Maximal clinical scores was “decreased the maximal clinical scores”.

And the “Onset of the disease” value [1]?
Its value is “delayed the onset of the disease”.

What about the “Weight loss during the disease course” value [1] of the same compound?
Its value is “less important”.

And the Body weight [2, 4]?
Its Body weight is “No difference”.

What about the Colon size [2, 4] of the same compound?
The Colon size was “significant increase”.

And the “DAI (disease activity index)” value [2, 4]?
The value was “Little difference”.

And the “Day at which blood appeared in the feces” value ([2]; control groups day +6)?
The value was “+8 day”.

And the Rmax ([3]; BIAcore, 25° C., 1:1 Langmuir model)?
Its Rmax is 83.3 RU.

What about the KA [3, 5] of the same compound?
Its KA is 144000 M⁻¹.

What about the kd [3, 5] of the same compound?
Its kd is 0.00312 s⁻¹.

What about the kon ([3]; BIAcore, 25° C., 1:1 Langmuir model, global fit, read-out: ka) of the same compound?
Its kon is 450 M⁻¹ s⁻¹.

What about the RI ([3]; peptide 1.56 μM) of the same compound?
Its RI is 12.1 RU.

And the Req ([3]; peptide 1.56 μM)?
The Req was 15.3 RU.

And the kobs ([3]; peptide 1.56 μM)?
The kobs was 0.00382 s⁻¹.

What about the RI ([3]; peptide 3.12 μM) of the same compound?
Its RI is 20.9 RU.

What about the Req ([3]; peptide 3.12 μM) of the same compound?
Its Req is 25.8 RU.

And the kobs ([3]; peptide 3.12 μM)?
Its kobs is 0.00452 s⁻¹.

What about the RI ([3]; peptide 6.25 μM) of the same compound?
Its RI is 33.8 RU.

And the Req ([3]; peptide 6.25 μM)?
Its Req is 39.5 RU.

What about the kobs ([3]; peptide 6.25 μM) of the same compound?
The kobs was 0.00593 s⁻¹.

What about the RI ([3]; peptide 12.5 μM) of the same compound?
The RI was 62.5 RU.

What about the Req ([3]; peptide 12.5 μM) of the same compound?
Its Req is 53.6 RU.

And the kobs ([3]; peptide 12.5 μM)?
Its kobs is 0.00874 s⁻¹.

And the RI ([3]; peptide 25 μM)?
The RI was 118 RU.

And the Req ([3]; peptide 25 μM)?
The Req was 65.2 RU.

And the kobs ([3]; peptide 25 μM)?
The kobs was 0.0144 s⁻¹.
